{"source": "ChEMBL document CHEMBL6109147", "about": "“Discovery of Potent STING Inhibitors Bearing a Difluorobenzodioxol Structural Motif as Potent Anti-Inflammatory Agents” (J Med Chem, 2025)", "key": {"Mus musculus [1]": {"system": "Mus musculus", "assay": "Anti-inflammatory activity against MSA-2 induced C57BL/6 mouse inflammation model assessed as inhibition of MSA-2 induced IP-10 level in kidney at 10 mg/kg, ip pre-treated for 1 hr followed by stimulated with MSA-2 for 4 hrs by ELISA", "type": "functional, organism-based", "conditions": "time 5.0 hrs"}, "[2]": {"biological_target": "Stimulator of interferon genes protein (Homo sapiens) (UniProt Q86WV6)", "sequence (Q86WV6 whole entry)": "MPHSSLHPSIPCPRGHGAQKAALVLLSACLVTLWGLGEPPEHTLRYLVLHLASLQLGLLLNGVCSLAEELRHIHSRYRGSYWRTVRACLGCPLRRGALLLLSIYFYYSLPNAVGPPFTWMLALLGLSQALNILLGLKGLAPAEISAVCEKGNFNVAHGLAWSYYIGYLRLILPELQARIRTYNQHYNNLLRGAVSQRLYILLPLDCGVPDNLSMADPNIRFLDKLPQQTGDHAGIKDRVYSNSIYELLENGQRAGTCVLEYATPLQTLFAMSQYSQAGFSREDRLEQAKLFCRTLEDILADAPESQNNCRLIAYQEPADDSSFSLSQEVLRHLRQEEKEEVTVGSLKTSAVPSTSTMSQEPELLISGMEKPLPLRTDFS", "assay": "Inhibition of STING downstream signalling in human THP1-Dual cells assessed as inhibition of HT-DNA induced IP-10 mRNA expression at 0.3 to 3 uM pre-treated for 1 hr followed by stimulated with HT-DNA measured after 4 hrs by real-time PCR analysis", "type": "cell-based", "conditions": "dose 0.3-3 µM, time 5.0 hrs"}, "Mus musculus [3]": {"system": "Mus musculus", "assay": "Anti-inflammatory activity in TREX1 D18N mouse model assessed as reduction in IL6 mRNA expression in heart at 10 mg/kg, ip measured after 2 weeks", "type": "functional, organism-based"}, "Mus musculus [4]": {"system": "Mus musculus", "assay": "Anti-inflammatory activity against Cisplatin induced C57BL/6 mouse kidney inflammation model assessed as prevention of Cisplatin induced interstitial vacuolation at 5 mg/kg, ip treated for 3 days", "type": "functional, organism-based", "conditions": "time 3.0 day"}, "[5]": {"assay": "Metabolic stability in mouse liver microsomes assessed as liver intrinsic clearance", "type": "ADME, Microsome"}, "Mus musculus [6]": {"system": "Mus musculus", "assay": "Anti-inflammatory activity against MSA-2 induced C57BL/6 mouse inflammation model assessed as inhibition of MSA-2 induced TNF-alpha mRNA expression in kidney at 10 mg/kg, ip pre-treated for 1 hr followed by stimulated with MSA-2 for 4 hrs by real-time PCR analysis", "type": "functional, organism-based", "conditions": "time 5.0 hrs"}, "Mus musculus [7]": {"system": "Mus musculus", "assay": "Anti-inflammatory activity against Cisplatin induced C57BL/6 STING-KO mouse kidney inflammation model assessed as prevention of Cisplatin induced interstitial vacuolation at 5 mg/kg, ip treated for 3 days", "type": "functional, organism-based", "conditions": "time 3.0 day"}}, "note": "Activity calls are given as the source filed them. No cut-off for these calls is given here."}
{"compound": "N#CC/C=C/c1ccc2[nH]cc(NC(=O)Nc3ccc4c(c3)OC(F)(F)O4)c2c1", "values": [{"measurement": "inhibition", "setting": "Mus musculus [1]", "value": "Active"}, {"measurement": "inhibition", "setting": "[2]", "value": "Active"}, {"measurement": "Activity", "setting": "Mus musculus [3]", "value": "Active"}, {"measurement": "inhibition", "setting": "Mus musculus [4]", "value": "inactive"}, {"measurement": "CLH", "setting": "[5]", "value": 206, "unit": "µL/min/mg"}, {"measurement": "inhibition", "setting": "Mus musculus [6]", "value": "Active"}, {"measurement": "Activity", "setting": "Mus musculus [7]", "value": "inactive"}]}
